From article PMC6581955, “Rosmarinic acid suppresses Alzheimer’s disease development by reducing amyloid β aggregation by increasing monoamine secretion” (Scientific Reports, 2019)

Key:
[1] = orally ingested polyphenols; cited from earlier work
[2] = system: Aβ; set-up: method as in PMID 14994335; details: screen of five polyphenols; cited from earlier work
[3] = system: Aβ; set-up: method as in PMID 15059976, PMID 23913715; details: cited from earlier work
[4] = target: T1, Aβ1–42 (Homo sapiens, UniProt P05067); assay: ThT assay (SensoLyte Thioflavin T β-Amyloid (1–42) Aggregation Kit); type: biochemical; details: 100 μM monoamine; for relative ThT fluorescence intensity (Aβ aggregation): 45 μM Aβ1–42, 37 °C; for time at which Aβ aggregation was significantly (p < 0.05) inhibited: 45 μM Aβ1–42, Dunnett's test
T1 construct: Dissolved lyophilized Aβ1–42 (PEPTIDE INSTITUTE, INC., Osaka, Japan); purchased PEPTIDE INSTITUTE, INC., Osaka, Japan
Description: Dissolved lyophilized Aβ1–42 (PEPTIDE INSTITUTE, INC., Osaka, Japan) in 2 mM NaOH produced a peptide concentration of 0.5 mg/mL, which was then subjected to sonication by a bath-type sonicator for 1 min prior to re-lyophilizing the resulting solution. The NaOH-treated Aβ1–42 lyophilizate was dissolved in 500 μL distilled water and sonicated for 1 min. We added 500 μL of 20 mM phosphate buffer and centrifuged the resulting solution for 10 min at 16,000 × g. The supernatant was used as the Aβ1–42 solution. Aggregation of Aβ1–42 was measured using the SensoLyte® Thioflavin T β-Amyloid (1–42) Aggregation Kit (ANASPEC Inc., Fremont, CA.) according to the manufacturer’s protocol. To measure the Aβ1–42 fibril formation in the 96-well black microplates, 10 μL of 2 mM ThT and 5 μL of each monoamine solution (2 mM) were added into each well and mixed with 85 μL Aβ1–42 solution. The final concentration of Aβ1–42 was 45 μM and that of each monoamine concentration was 100 μM. The ThT fluorescence signal was monitored with Ex/Em = 440 nm/484 nm using Varioskan LUX (Thermo Fisher Scientific) at 37 °C at intervals of 5 min and 10 min for 0–125 min and 140–175 min, respectively.
All samples were tested in triplicate, and data were shown as relative fluorescence units by subtracting the fluorescence level of the blank from the actual value.

[5] = system: brain serotonin concentration; set-up: method as in PMID 23009399; details: via inhibition of Maoa; cited from earlier work
[6] = system: striatum DA and NE; set-up: method as in PMID 25756794; details: fed for 20 days; with elevated Th expression in SN; cited from earlier work

T1 sequence (P05067 672-713): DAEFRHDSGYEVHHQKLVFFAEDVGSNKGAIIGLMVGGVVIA

Row | SMILES | relative ThT fluorescence intensity (Aβ aggregation) [4] | time at which Aβ aggregation was significantly (p < 0.05) inhibited [4] [min] | further results
1 | COc1cc(/C=C/C(=O)CC(=O)/C=C/c2ccc(O)c(OC)c2)ccc1O [Cur, curcumin, reference compound] | – | – | intestinal permeability [1]: approximately 0.1%; Aβ aggregation in vitro [2]: significantly inhibited
2 | NCCc1ccc(O)c(O)c1 [DA, dopamine] | lower than that in their absence | 15 to 160 | Aβ aggregation [3]: inhibit
3 | O=C(O)Cc1ccc(O)c(O)c1 [DOPAC, 3,4-dihydroxyphenylacetic acid] | lower than that in their absence | – | –
4 | COc1cc(/C=C/C(=O)O)ccc1O [FA, ferulic acid] | – | – | Aβ aggregation in vitro [2]: significantly inhibited
5 | N[C@@H](Cc1ccc(O)c(O)c1)C(=O)O [L-DOPA, levodopa] | lower than that in their absence | 20 to 160 | Aβ aggregation [3]: inhibit
6 | NC[C@H](O)c1ccc(O)c(O)c1 [NE, norepinephrine] | lower than that in their absence | 20 to 160 | –
7 | O=c1c(O)c(-c2ccc(O)c(O)c2)oc2cc(O)cc(O)c12 [quercetin] | – | – | brain serotonin concentration [5]: suppressed a decrease
8 | Cn1cnc2c1c(=O)[nH]c(=O)n2C [theobromine] | – | – | DA and NE concentrations in the striatum [6]: significant increases
